Assay results: PMC3693772, “Protein expression, biochemical pharmacology of signal transduction, and relation to intraocular pressure modulation by bradykinin B2 receptors in ciliary muscle” (Molecular Vision, 2013)
Like-named read-outs stand apart in the source and are kept apart here.

Legend:
[1] = system: ERK1/2 phosphorylation, CHO-B2 cells; assay: ERK1/2 phosphorylation in CHO-B2 cells (HTRF); format: cell-based, Chinese hamster ovary cells, human cloned B2 receptor; conditions: high basal background
primary h-TM cells = format: cell-based, human; conditions: preliminary data, values rounded-off, read-out: Agonist potency at stimulating [Ca^2+]i mobilization in primary h-TM cells (EC50)
human TM cells = conditions: ref [33]; cited from earlier work
pro-MMP-3, h-CM cells = assay: pro-MMP-3 release from h-CM cells; format: cell-based, human; conditions: BK 10 nM to 1 µM, 24 h at 37 °C; n=5
Protocol: (§1) Measurement of extracellular signal-regulated kinase-1/2 phosphorylation and pro-matrix metalloproteinase production
(§2) The release of pro-MMP-1/2/3 in the extracellular medium of h-CM cells exposed to kinin’s, for 24 h at 37 °C [29, 30] was studied next. Thus, h-CM cells isolated from multiple human donor eyes were cultured as described above and then serum-starved for 24 h prior to the addition of any test compound. Cells were incubated with the vehicle or test compound for 24 hours at 37 °C after which the medium was collected and concentrated ten-fold using Centricon concentrators (Millipore Corp., Bellireca, MA). Equal volumes of this concentrate were loaded on 10% SDS-polyacrylamide gels (SDS-PAGE) and the proteins separated and transferred to nitrocellulose membranes. The membranes were then blocked with 5% non-fat dry milk (Bio-Rad Laboratories, Hercules, CA) followed by incubation with antibodies to pro-MMP-1, pro-MMP-2, or pro-MMP-3 for 12 hours at 4 °C with gentle shaking. After washing, these membranes were incubated with appropriate secondary antibodies (HRP-conjugated; dilution 1:3000) for 1 hour at 20 °C. […] For chemiluminescent detection, the membranes were treated with enhanced chemiluminescent reagent (Amersham Pharmacia, Piscataway, NJ) and the signal was quantified using a Bio-Rad Versadoc imaging system (Bio-Rad Laboratories, Hercules, CA).

[2] = system: isolated perfused bovine eyes; conditions: ref [16]; cited from earlier work
Description: (§3) Despite the presence of the kallikrein/kinin enzyme and receptor system in the h-CM tissue and cells, with B2-receptor immunoreactivity also found in the cynomolgus monkey CM (Figure 2B), the physiologic roles of BK and its receptors in this tissue and cells remain to be elucidated. Indeed, there are conflicting reports in the literature regarding the functions and involvement of BK in modulating IOP in various animal models.

[3] = cited from earlier work
Description: as §3

[4] = system: isolated perfused human and bovine anterior eye segments; conditions: ref [15]; cited from earlier work
Description: as §3

albino rabbits = conditions: topical dosing, ref [8]; cited from earlier work
Description: as §3

cynomolgus monkey eyes = conditions: intracameral, ref [12], cited from earlier work
Description: as §3

[5] = system: certain endothelial and neuronal cells; conditions: ref [3],[28]; cited from earlier work
h-CM cells [6] = format: cell-based, human; conditions: 1 h at 37 °C; enzyme immunoassay; mean ± SEM, 3 to 6 experiments; read-out: PGE2 production in h-CM cells (EC50)
Protocol: Measurement of prostaglandins in human ciliary muscle and Chinese hamster ovary cells expressing B2 receptors
(§4) This involved stimulating h-CM cells and CHO-B2 cells with various concentrations of test peptides and measuring the release of various PGs in the extracellular medium. The concentration-dependent effects of these peptides on total PGs, and specifically PGE2, PGF2α, and PGD2 release, were studied. Cells were grown as a monolayer in a 24-well plate (precoated with fibronectin) to confluence and subsequently serum-starved overnight before the experiment. On the day of the experiment, just before the drug was added, the wells were aspirated completely, and 990 µl basal medium and 10 µl 100× series of concentrations of the different peptide agonists were added to achieve the desired final concentrations of each compound (e.g., 0.1 nM to 10 µM). […] At the end of the incubation period, the cellular supernatants were collected and stored at −80 °C or used immediately to determine the PG content. Cell supernatants were tested for total PG levels and sub-species of PGs (PGE2, PGF2α, and PGD2) using specific competitive enzyme immunoassays (Cayman Chemical Co., Ann Arbor, MI) as directed in the manufacturer’s recommended protocols using the supplied standards and reagents. The limits of detection for various PGs were as follows: total PGs=29 pg/ml; PGE2=15 pg/ml; PGF2α=9 pg/ml; PGD2=200 pg/ml.

pro-MMP-1, h-CM cells = assay: pro-MMP-1 release from h-CM cells; format: cell-based, human; conditions: BK 10 nM to 1 µM, 24 h at 37 °C; n=6
Protocol: as §1, §2

h-TM cells = conditions: ref [23]; cited from earlier work
h-CM cells [7] = assay: PGD2 production in h-CM cells; format: cell-based, human; conditions: with or without BK; limit of detection PGD2=200 pg/ml
Protocol: as §4

[8] = system: ERK1/2 phosphorylation, h-CM cells; assay: ERK1/2 phosphorylation in h-CM cells (HTRF); format: cell-based, human; conditions: 100 nM
Protocol: as §1
In the current assay, an homogeneous-time-resolved fluorescence (HTRF) assay (CisBio; Bedford, MA) was used. The HTRF assay is based on a sandwich immunoassay using an antiphospho-ERK1/2 antibody labeled with D2 and an anti-ERK1/2 antibody labeled with Eu^3+-Cryptate. In brief, h-CM cells (passage 7) were cultured in 96-well half-area white plates and incubated overnight, at 37 °C in CO2 atmosphere. […] Lysis buffer provided in the HTRF kit was used to lyse the cells at 23 °C with shaking for 30 min after the agonist treatment. HTRF conjugates containing phospho-ERK1/2 antibodies were then added to the lysates and incubated for an additional 2 h at 23 °C. The fluorescence signal was recorded using a Tecan M1000 fluorescence plate reader ([…]) at 620 nm for the donor and 665 nm for the acceptor.

[9] = intracameral injection, ref [10],[14]

H-RPPGFSPFR-OH [BK]
ERK1/2 phosphorylation response in CHO-B2 cells [1]: did not obtain a meaningful response | EC50 (primary h-TM cells): 1 nM | Production of PGs in human TM cells (human TM cells): produced various PGs | pro-MMP-3 release vs basal level (pro-MMP-3, h-CM cells): 1.41±0.09 fold | Outflow [2]: apparent increase in outflow | IOP effect [3, 9]: raised IOP | Pupil effect [3, 9]: caused intense miosis | IOP effect ([3]; intravenous infusion, ref [9]): lowered IOP | Aqueous humor inflow and outflow ([3]; ref [11]): increased aqueous humor inflow and outflow | Outflow facility [4]: decreased outflow facility | IOP effect (albino rabbits): lowered IOP | Aqueous humor outflow (cynomolgus monkey eyes; no ciliary muscle retrodisplacement): no effect on aqueous humor outflow | Aqueous humor outflow (cynomolgus monkey eyes; with ciliary muscle retrodisplacement): decreased outflow | Production of NO and cGMP [5]: can elicit production of NO and cGMP | EC50 (h-CM cells [6]): 8.9 ± 0.2 nM | pro-MMP-1 release vs basal level (pro-MMP-1, h-CM cells): 3.12±0.46 fold | ERK1/2 phosphorylation in h-TM cells (h-TM cells): stimulate ERK1/2 phosphorylation | PGD2 release in h-CM cells (h-CM cells [7]): no PGD2 was detected | Increase in ERK1/2 phosphorylation (abstract) [8]: twofold
